System: skin
Assay: Affymetrix microarray of skin, DBP-4 hr and analogs vs. untreated; gene selection by log-2 fold change, Wilcoxon, Kendall tau (Tables 8, 9)
Type: in vivo, mouse
Details: for Kendall: Kendall tau coefficient

With `CCCCOC(=O)c1ccccc1C(=O)OCCCC` [DBP, dibutylphthalate] the “DBP Expression: Socs2” value (NM_001168655_at, DBP-4 hr) was 8.92, the “DBP Expression: Socs2” value (NM_001168656_at, DBP-4 hr) was 8.92 and the “DBP Expression: Socs2” value (NM_001168657_at, DBP-4 hr) was 8.92. The “DBP Expression: Arid5a” value (NM_001172205_at, DBP-4 hr) was 7.61, the “DBP Expression: Arid5a” value (NM_001172206_at, DBP-4 hr) was 7.61 and the “DBP Expression: Nfkb2” value (NM_001177369_at, DBP-4 hr) was 8.26. The “DBP Expression: Nfkb2” value (NM_001177370_at, DBP-4 hr) was 8.26, the “DBP Expression: Cd44” value (NM_001177785_at, DBP-4 hr) was 9.82 and the “DBP Expression: Cd44” value (NM_001177786_at, DBP-4 hr) was 9.82. For the same compound, the “DBP Expression: Cd44” value (NM_001177787_at, DBP-4 hr) was 9.82, the “DBP Expression: Smox” value (NM_001177833_at, DBP-4 hr) was 8.18 and the “DBP Expression: Smox” value (NM_001177834_at, DBP-4 hr) was 8.24. The “DBP Expression: Smox” value (NM_001177835_at, DBP-4 hr) was 8.44, the “DBP Expression: Smox” value (NM_001177836_at, DBP-4 hr) was 8.07 and the “DBP Expression: Smox” value (NM_001177837_at, DBP-4 hr) was 8.07. For the same compound, the “DBP Expression: Smox” value (NM_001177838_at, DBP-4 hr) was 8.44, the “DBP Expression: Smox” value (NM_001177839_at, DBP-4 hr) was 8.07 and the “DBP Expression: Smox” value (NM_001177840_at, DBP-4 hr) was 8.44. The “DBP Expression: Pde4b” value (NM_001177980_at, DBP-4 hr) was 8.96, the “DBP Expression: Pde4b” value (NM_001177981_at, DBP-4 hr) was 8.96 and the “DBP Expression: Pde4b” value (NM_001177982_at, DBP-4 hr) was 8.96. For the same compound, the “DBP Expression: 5730408K05Rik” value (NR_027866_at, DBP-4 hr) was 8.14, the “DBP Expression: Arid5a” value (NR_033310_at, DBP-4 hr) was 7.61 and the Wilcoxon (Socs2 NM_007706_at, DBP-4 hr vs. untreated) was “No”. The Kendall (Socs2 NM_007706_at) was “No”, the Wilcoxon (Socs3 NM_007707_at, DBP-4 hr vs. untreated) was “Yes” and the Kendall (Socs3 NM_007707_at) was “No”. The Wilcoxon (Timp1 NM_001044384_at, DBP-4 hr vs. untreated) was “Yes”, the Kendall (Timp1 NM_001044384_at) was “No” and the “DBP Expression: LOC100504977” value (XM_003085794_at, DBP-4 hr) was 8.47. The “Wilcoxon: 1810046J19Rik” value (gene 1810046J19Rik, NM_025559_at, DBP-4 hr vs. untreated) was “No”, the “Kendall: 1810046J19Rik” value (gene 1810046J19Rik, NM_025559_at, gene expression vs. output) was “Yes” and the “Wilcoxon: 4933434E20Rik” value (gene 4933434E20Rik, NM_025762_at, DBP-4 hr vs. untreated) was “No”. For the same compound, the “Kendall: 4933434E20Rik” value (gene 4933434E20Rik, NM_025762_at, gene expression vs. output) was “Yes”, the “Log2 Expression Level” value (gene #1 of Table 8) was 6.82 and the “Log2 Expression Level” value (gene #2 of Table 8) was 6.93. The “Log2 Expression Level” value (gene #3 of Table 8) was 9.82, the “Log2 Expression Level” value (gene #4 of Table 8) was 9.82 and the “Log2 Expression Level” value (gene #5 of Table 8) was 7.53. The “Log2 Expression Level” value (gene #6 of Table 8) was 6.91, the “Log2 Expression Level” value (gene #7 of Table 8) was 6.26 and the “Log2 Expression Level” value (gene #8 of Table 8) was 6.91. The “Log2 Expression Level” value (gene #9 of Table 8) was 6.91, the “Log2 Expression Level” value (gene #10 of Table 8) was 6.91 and the “Log2 Expression Level” value (gene #11 of Table 8) was 6.26. The “Log2 Expression Level” value (gene #12 of Table 8) was 6.26, the “Log2 Expression Level” value (gene #13 of Table 8) was 6.26 and the “Log2 Expression Level” value (gene #14 of Table 8) was 6.13. The “Log2 Expression Level” value (gene #15 of Table 8) was 6.13, the “Log2 Expression Level” value (gene #16 of Table 8) was 7.45 and the “Log2 Expression Level” value (gene #17 of Table 8) was 9.48. The “Log2 Expression Level” value (gene #18 of Table 8) was 9.48, the “Log2 Expression Level” value (gene #19 of Table 8) was 9.61 and the “Log2 Expression Level” value (gene #20 of Table 8) was 11.11. The “Log2 Expression Level” value (gene #21 of Table 8) was 9.27, the “Log2 Expression Level” value (gene #22 of Table 8) was 8.24 and the “Log2 Expression Level” value (gene #23 of Table 8) was 6.89. For the same compound, the “Log2 Expression Level” value (gene #24 of Table 8) was 8.10, the “Log2 Expression Level” value (gene #25 of Table 8) was 8.10 and the “Log2 Expression Level” value (gene #26 of Table 8) was 8.56. For the same compound, the “Log2 Expression Level” value (gene #27 of Table 8) was 8.56, the “Log2 Expression Level” value (gene #28 of Table 8) was 8.56 and the “Log2 Expression Level” value (gene #29 of Table 8) was 7.22. For the same compound, the “Log2 Expression Level” value (gene #30 of Table 8) was 8.92, the “Log2 Expression Level” value (gene #31 of Table 8) was 8.92 and the “Log2 Expression Level” value (gene #32 of Table 8) was 8.92. For the same compound, the “Log2 Expression Level” value (gene #33 of Table 8) was 6.54, the “Log2 Expression Level” value (gene #34 of Table 8) was 7.61 and the “Log2 Expression Level” value (gene #35 of Table 8) was 7.61. The “Log2 Expression Level” value (gene #36 of Table 8) was 9.82, the “Log2 Expression Level” value (gene #37 of Table 8) was 9.82 and the “Log2 Expression Level” value (gene #38 of Table 8) was 9.82. The “Log2 Expression Level” value (gene #39 of Table 8) was 8.18, the “Log2 Expression Level” value (gene #40 of Table 8) was 8.24 and the “Log2 Expression Level” value (gene #41 of Table 8) was 8.44. For the same compound, the “Log2 Expression Level” value (gene #42 of Table 8) was 8.07, the “Log2 Expression Level” value (gene #43 of Table 8) was 8.07 and the “Log2 Expression Level” value (gene #44 of Table 8) was 8.44. For the same compound, the “Log2 Expression Level” value (gene #45 of Table 8) was 8.07, the “Log2 Expression Level” value (gene #46 of Table 8) was 8.44 and the “Log2 Expression Level” value (gene #47 of Table 8) was 8.96. The “Log2 Expression Level” value (gene #48 of Table 8) was 8.96, the “Log2 Expression Level” value (gene #49 of Table 8) was 8.96 and the “Log2 Expression Level” value (gene #50 of Table 8) was 10.11. For the same compound, the “Log2 Expression Level” value (gene #51 of Table 8) was 8.84, the “Log2 Expression Level” value (gene #52 of Table 8) was 10.36 and the “Log2 Expression Level” value (gene #53 of Table 8) was 8.58. The “Log2 Expression Level” value (gene #54 of Table 8) was 10.63 and the “Log2 Expression Level” value (gene #55 of Table 8) was 7.56.

Source: patent US20150307938A1, “METHOD TO IDENTIFY A NOVEL CLASS OF IMMUNOLOGIC ADJUVANTS” (Lancell, L.L.C., priority 2011, published 2015)
